{"source": "PubChem BioAssay AID1787", "about": "(Sanford-Burnham Center for Chemical Genomics, 2009)", "test_system": "MDA-MB-435 cytotoxicity with TRAIL, ATPlite luminescence, 24 h", "assay": "PubChem AID 1787", "note": "Activity calls are given as the source filed them. The rule behind the calls is not given here.", "data": [{"smiles": "CSc1nc(-c2ccc(C)cc2)nc(C(Cl)Cl)n1", "values": [{"measurement": "cytotoxicity", "setting": "TRAIL alone cytotoxicity, dose or concentration not given here", "result": 42, "unit": "%"}, {"measurement": "cytotoxicity with TRAIL", "setting": "at 30 µM (top of the series)", "result": "92 (inactive)"}, {"measurement": "cytotoxicity", "setting": "compound alone cytotoxicity series, at 30 µM, stronger effect = higher value", "result": 8, "unit": "%"}]}]}
